Experimental data reported in PubChem BioAssay (NCI).
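Test compounds were applied to cells in 96-well plates for 48 hours at 5 doses. At the GI50, growth is halved. At the TGI there is no net growth.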

Tests used:
Test in all cases: NCI-60 cell line screen, 48 h; in the data active = GI50 below about 0.43 µM; inactive = the rest
HCT-116 colon = test system: HCT-116 colon
HCC-2998 colon = test system: HCC-2998 colon
OVCAR-5 ovarian = test system: OVCAR-5 ovarian
HOP-62 NSCLC = test system: HOP-62 NSCLC
U251 CNS = test system: U251 CNS
OVCAR-8 ovarian = test system: OVCAR-8 ovarian
K-562 leukemia = test system: K-562 leukemia
NCI-H522 lung = test system: NCI-H522 lung
MCF7 breast = test system: MCF7 breast
NCI/ADR-RES ovarian = test system: NCI/ADR-RES ovarian

COC(=O)C1=Cc2cc3c(cc2[C@H](c2ccc4c(c2)OCO4)C1C(=O)OC)OCO3 (some centres not stated)
> 100 µM: TGI (HCT-116 colon) | TGI (HCC-2998 colon) | TGI (OVCAR-5 ovarian) | TGI (HOP-62 NSCLC) | TGI (U251 CNS) | TGI (OVCAR-8 ovarian) | TGI (K-562 leukemia)

CCOC(=O)C(C(=O)c1ccccc1-c1ccccc1C(=O)O)=P(c1ccccc1)(c1ccccc1)c1ccccc1
47.7 µM: TGI (HCC-2998 colon)
40.5 µM: TGI (HOP-62 NSCLC)
36.8 µM: TGI (U251 CNS)
42 µM: TGI (HCT-116 colon)
> 100 µM: TGI (OVCAR-8 ovarian) | TGI (K-562 leukemia)

CCCOC(=O)C1CCC(=O)N1C(=O)C(Cl)Cl (configuration not stated)
> 100 µM: TGI (NCI-H522 lung) | TGI (HCT-116 colon) | TGI (HCC-2998 colon) | TGI (OVCAR-5 ovarian) | TGI (HOP-62 NSCLC) | TGI (U251 CNS) | TGI (OVCAR-8 ovarian) | TGI (K-562 leukemia)

CCOP1(=O)OCC2OC(n3cnc4c(N)ncnc43)C(O)C2O1 (configuration not stated)
> 100 µM: TGI (NCI-H522 lung) | TGI (MCF7 breast) | TGI (NCI/ADR-RES ovarian) | TGI (HCT-116 colon) | TGI (OVCAR-5 ovarian) | TGI (HOP-62 NSCLC) | TGI (U251 CNS) | TGI (OVCAR-8 ovarian) | TGI (K-562 leukemia)

COC(=O)C1=C(O)C(O)=C(C(=O)OC)CC1
> 100 µM: TGI (NCI-H522 lung) | TGI (HCC-2998 colon) | TGI (OVCAR-5 ovarian) | TGI (HOP-62 NSCLC) | TGI (U251 CNS) | TGI (OVCAR-8 ovarian) | TGI (K-562 leukemia)
28.9 µM: TGI (HCT-116 colon)

COC(=O)C(=O)C(C#N)c1cccc2ccccc12 (configuration not stated)
> 100 µM: TGI (NCI-H522 lung) | TGI (HCT-116 colon) | TGI (HCC-2998 colon) | TGI (OVCAR-5 ovarian) | TGI (HOP-62 NSCLC) | TGI (U251 CNS) | TGI (OVCAR-8 ovarian) | TGI (K-562 leukemia)

Cc1c2c(n3c(nc4ccccc43)c1C#N)SCC2
> 10 µM: TGI (MCF7 breast) | TGI (NCI/ADR-RES ovarian) | TGI (HCT-116 colon) | TGI (OVCAR-5 ovarian) | TGI (HOP-62 NSCLC) | TGI (U251 CNS) | TGI (OVCAR-8 ovarian) | TGI (K-562 leukemia)

CCOC(=O)c1cnc2ccc(Cl)cc2c1NCCCN(C)C
inactive: GI50 (NCI-H522 lung) 16.2 µM | GI50 (MCF7 breast) 19.4 µM | GI50 (NCI/ADR-RES ovarian) 25 µM | GI50 (HCT-116 colon) 10.2 µM | GI50 (HCC-2998 colon) 38.4 µM | GI50 (OVCAR-5 ovarian) 22.2 µM | GI50 (HOP-62 NSCLC) 23 µM | GI50 (OVCAR-8 ovarian) 11.6 µM | GI50 (K-562 leukemia) 18.1 µM
47 µM: TGI (OVCAR-8 ovarian)
75.6 µM: TGI (MCF7 breast)
94.8 µM: TGI (HOP-62 NSCLC)
39.4 µM: TGI (NCI-H522 lung)
> 100 µM: TGI (NCI/ADR-RES ovarian) | TGI (HCT-116 colon) | TGI (HCC-2998 colon) | TGI (OVCAR-5 ovarian) | TGI (K-562 leukemia)

C1=C[C@@H]2c3ccc4cnccc4c3NC[C@@H]2C1
> 100 µM: TGI (MCF7 breast) | TGI (NCI/ADR-RES ovarian) | TGI (HCT-116 colon) | TGI (HCC-2998 colon) | TGI (OVCAR-5 ovarian) | TGI (HOP-62 NSCLC) | TGI (U251 CNS) | TGI (OVCAR-8 ovarian) | TGI (K-562 leukemia)

COC1OC(OC)C2C(c3c(C)cc(C)cc3C)=NOC12 (configuration not stated)
> 100 µM: TGI (NCI-H522 lung) | TGI (HCT-116 colon) | TGI (HCC-2998 colon) | TGI (OVCAR-5 ovarian) | TGI (HOP-62 NSCLC) | TGI (U251 CNS) | TGI (OVCAR-8 ovarian) | TGI (K-562 leukemia)

COC1CC(OC2OC(CO)C(O)C(O)C2O)/C(=C\C#N)C(O)C1OC (configuration not stated)
> 100 µM: TGI (NCI-H522 lung) | TGI (MCF7 breast) | TGI (NCI/ADR-RES ovarian) | TGI (HCT-116 colon) | TGI (HCC-2998 colon) | TGI (OVCAR-5 ovarian) | TGI (HOP-62 NSCLC) | TGI (U251 CNS) | TGI (OVCAR-8 ovarian)

C=C1C(=O)O[C@@H]2[C@@H]3O[C@@](C)(CC/C=C(\C)CCC[C@@H]2C)[C@H](O)C[C@@H]13
inactive: GI50 (NCI-H522 lung) 2.11 µM | GI50 (NCI/ADR-RES ovarian) 1.67 µM | GI50 (HCT-116 colon) 1.49 µM | GI50 (U251 CNS) 3.75 µM | GI50 (OVCAR-8 ovarian) 1.76 µM | GI50 (K-562 leukemia) 3.1 µM
9.58 µM: TGI (K-562 leukemia)
4.5 µM: TGI (NCI-H522 lung)
24 µM: TGI (HOP-62 NSCLC)
4.53 µM: TGI (NCI/ADR-RES ovarian)
5.85 µM: TGI (OVCAR-8 ovarian)
26.7 µM: TGI (OVCAR-5 ovarian)
15.6 µM: TGI (U251 CNS)
18 µM: TGI (HCC-2998 colon)
2.87 µM: TGI (HCT-116 colon)

COc1ccc(C2SC(N)=Nc3c2c(C)nn3C(=O)c2ccncc2)cc1 (configuration not stated)
> 100 µM: TGI (MCF7 breast) | TGI (NCI/ADR-RES ovarian) | TGI (HCT-116 colon) | TGI (OVCAR-5 ovarian) | TGI (HOP-62 NSCLC) | TGI (U251 CNS) | TGI (OVCAR-8 ovarian) | TGI (K-562 leukemia)

CCCCN(CCCC)C(=Nc1ccccc1)N(CCCC)CCCC
10.4 µM: TGI (K-562 leukemia)
7.41 µM: TGI (NCI-H522 lung)
15.4 µM: TGI (HCC-2998 colon)
20.5 µM: TGI (HOP-62 NSCLC)
24.9 µM: TGI (OVCAR-8 ovarian)
27.8 µM: TGI (OVCAR-5 ovarian)
13.8 µM: TGI (HCT-116 colon)
17.4 µM: TGI (U251 CNS)

O=C(CC1Sc2ccccc2NC1=O)Nc1cccc(Cl)c1 (configuration not stated)
82.8 µM: TGI (U251 CNS)
75.8 µM: TGI (OVCAR-8 ovarian)
> 100 µM: TGI (HCT-116 colon) | TGI (HCC-2998 colon) | TGI (OVCAR-5 ovarian) | TGI (K-562 leukemia)

CC(C)NC(=O)OCc1nnn2c1C(OC(=O)NC(C)C)CC2 (configuration not stated)
> 100 µM: TGI (NCI-H522 lung) | TGI (HCT-116 colon) | TGI (HCC-2998 colon) | TGI (OVCAR-5 ovarian) | TGI (U251 CNS) | TGI (OVCAR-8 ovarian) | TGI (K-562 leukemia)

CCC12C=CCN3CC[C@]4(C(=C(C(=O)OC)[C@@H]1Nc1ncnc5c1ncn5C1OC(COC(C)=O)C(OC(C)=O)C1OC(C)=O)Nc1ccccc14)C32 (some centres not stated)
4.56 µM: TGI (HCC-2998 colon)
4.91 µM: TGI (U251 CNS)
5.83 µM: TGI (HOP-62 NSCLC)
5.55 µM: TGI (HCT-116 colon)
17 µM: TGI (K-562 leukemia)
3.12 µM: TGI (NCI-H522 lung)
4.67 µM: TGI (OVCAR-8 ovarian)
8.94 µM: TGI (OVCAR-5 ovarian)

COC1CCC(=C2C(=O)OC(C)(C)OC2=O)N1 (configuration not stated)
> 100 µM: TGI (NCI-H522 lung) | TGI (HCT-116 colon) | TGI (HCC-2998 colon) | TGI (OVCAR-5 ovarian) | TGI (HOP-62 NSCLC) | TGI (U251 CNS) | TGI (OVCAR-8 ovarian) | TGI (K-562 leukemia)

NC(=O)C/C=C/CC(N)=O
> 100 µM: TGI (NCI-H522 lung) | TGI (MCF7 breast) | TGI (NCI/ADR-RES ovarian) | TGI (HCT-116 colon) | TGI (HCC-2998 colon) | TGI (OVCAR-5 ovarian) | TGI (HOP-62 NSCLC) | TGI (U251 CNS) | TGI (OVCAR-8 ovarian)

CCc1ccc(Cc2ccc(CC)c(NC(=O)C(=O)Cc3nc4ccccc4nc3C)c2CC)c(CC)c1NC(=O)C(=O)Cc1nc2ccccc2nc1C
> 100 µM: TGI (NCI-H522 lung) | TGI (HCT-116 colon) | TGI (HCC-2998 colon) | TGI (OVCAR-5 ovarian) | TGI (HOP-62 NSCLC) | TGI (U251 CNS) | TGI (OVCAR-8 ovarian) | TGI (K-562 leukemia)

COC(=O)C1=CC(=O)C(C(=O)Nc2ccc(OC)cc2)C(c2ccccc2)O1 (configuration not stated)
> 75.9 µM: TGI (HCT-116 colon)
50.9 µM: TGI (HOP-62 NSCLC)
> 78.7 µM: TGI (HCC-2998 colon)
> 100 µM: TGI (OVCAR-5 ovarian) | TGI (K-562 leukemia)
90.1 µM: TGI (NCI-H522 lung)
96.8 µM: TGI (OVCAR-8 ovarian)
51.2 µM: TGI (U251 CNS)

CC1(CCCC2(C)CCNC2=O)OCCO1 (configuration not stated)
> 10 µM: TGI (MCF7 breast) | TGI (NCI/ADR-RES ovarian) | TGI (HCT-116 colon) | TGI (HCC-2998 colon) | TGI (OVCAR-5 ovarian) | TGI (HOP-62 NSCLC) | TGI (U251 CNS) | TGI (OVCAR-8 ovarian) | TGI (K-562 leukemia)
